In series [1] the target is GST-bound ERR alpha LBD (Homo sapiens (Human), UniProt P11474). The note with it: TR-FRET, PGC1a coactivator; read-out: Binding Assay, IC50 ERRα. For orientation: TR-FRET usually uses a lanthanide donor and a delayed reading to cut background.
Method: (§2) The arylethene derivative of the present invention was sequentially added to a 384 well plate from a concentration of 10 μM to a final concentration of two-fold dilution. […] After all reagents were added, a reaction was carried out with gentle shaking at 20° C. for 1 hour, and after the reaction, a binding activity was measured by a TR-FRET method.
Series [2] concerns the target GST-bound ER alpha ligand-binding domain (LBD) (Homo sapiens (Human), UniProt P03372). In words: biochemical. The following applies: TR-FRET, beta-estradiol 4 nM as agonist; read-out: Binding Assay, IC50 ERα.
Method: as §2
Series [3] deals with ERRγ. It is filed as cell-based.
Series [4] has as its target CYP1A2 (Homo sapiens (Human), UniProt P05177). Kind of series: Cytochrome P450 activity inhibition, CYP1A2. It is filed as in vitro ADME. The following applies: 10 μM, human liver microsomes, Phenacetin substrate. An excerpt: (§1) 1) Cytochrome P450 (CYP450) Activity Inhibition Evaluation
For orientation: Liver microsomes are a subcellular fraction often used to study metabolism.

The target of series [5] is CYP2C9 (Homo sapiens (Human), UniProt P11712). In words: Cytochrome P450 activity inhibition, CYP2C9. The series is classed as in vitro ADME. The note with it: 10 μM, human liver microsomes, Diclofenac substrate.
Chain of CYP2C9 (P11712 whole entry): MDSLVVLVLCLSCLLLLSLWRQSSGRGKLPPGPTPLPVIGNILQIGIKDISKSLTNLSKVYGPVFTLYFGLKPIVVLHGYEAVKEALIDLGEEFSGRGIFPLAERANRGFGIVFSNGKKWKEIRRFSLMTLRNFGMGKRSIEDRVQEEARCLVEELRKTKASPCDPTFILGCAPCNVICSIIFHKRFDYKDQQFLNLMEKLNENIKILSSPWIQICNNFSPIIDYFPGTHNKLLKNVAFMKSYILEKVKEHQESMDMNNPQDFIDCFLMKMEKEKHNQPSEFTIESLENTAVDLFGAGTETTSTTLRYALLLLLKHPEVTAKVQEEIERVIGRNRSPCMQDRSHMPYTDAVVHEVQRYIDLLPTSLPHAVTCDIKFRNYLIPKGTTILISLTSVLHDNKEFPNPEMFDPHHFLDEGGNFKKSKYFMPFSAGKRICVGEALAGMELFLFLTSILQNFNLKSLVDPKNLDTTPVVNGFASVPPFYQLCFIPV
Source text: as §1

Series [6] deals with CYP2C19 (Homo sapiens (Human), UniProt P33261). In words: Cytochrome P450 activity inhibition, CYP2C19. It is filed as in vitro ADME. The note with it: 10 μM, human liver microsomes, S-mephenytoin substrate.
Chain of CYP2C19 (P33261 whole entry): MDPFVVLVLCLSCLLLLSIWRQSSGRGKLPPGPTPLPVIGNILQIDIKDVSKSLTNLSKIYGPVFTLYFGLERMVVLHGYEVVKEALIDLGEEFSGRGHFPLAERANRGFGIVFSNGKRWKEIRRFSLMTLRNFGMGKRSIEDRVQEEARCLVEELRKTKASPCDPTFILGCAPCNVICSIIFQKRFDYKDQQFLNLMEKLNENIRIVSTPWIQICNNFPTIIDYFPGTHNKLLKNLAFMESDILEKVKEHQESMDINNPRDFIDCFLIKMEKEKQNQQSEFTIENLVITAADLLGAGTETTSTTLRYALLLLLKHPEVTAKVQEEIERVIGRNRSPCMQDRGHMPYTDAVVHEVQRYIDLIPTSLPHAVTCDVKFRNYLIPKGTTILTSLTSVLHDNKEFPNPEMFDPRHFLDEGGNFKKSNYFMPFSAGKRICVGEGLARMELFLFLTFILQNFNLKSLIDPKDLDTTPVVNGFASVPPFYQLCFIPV
Source text: as §1

Series [7] addresses CYP2D6 (Homo sapiens (Human), UniProt P10635). Kind of series: Cytochrome P450 activity inhibition, CYP2D6. The following applies: 10 μM, human liver microsomes, Dextromethorphan substrate. It is filed as in vitro ADME.
Source text: as §1

Series [8] deals with CYP3A4 (Homo sapiens (Human), UniProt P08684). Kind of series: Cytochrome P450 activity inhibition, CYP3A4. The series is classed as in vitro ADME. The note with it: 10 μM, human liver microsomes, Midazolam substrate.
Chain of CYP3A4 (P08684 whole entry): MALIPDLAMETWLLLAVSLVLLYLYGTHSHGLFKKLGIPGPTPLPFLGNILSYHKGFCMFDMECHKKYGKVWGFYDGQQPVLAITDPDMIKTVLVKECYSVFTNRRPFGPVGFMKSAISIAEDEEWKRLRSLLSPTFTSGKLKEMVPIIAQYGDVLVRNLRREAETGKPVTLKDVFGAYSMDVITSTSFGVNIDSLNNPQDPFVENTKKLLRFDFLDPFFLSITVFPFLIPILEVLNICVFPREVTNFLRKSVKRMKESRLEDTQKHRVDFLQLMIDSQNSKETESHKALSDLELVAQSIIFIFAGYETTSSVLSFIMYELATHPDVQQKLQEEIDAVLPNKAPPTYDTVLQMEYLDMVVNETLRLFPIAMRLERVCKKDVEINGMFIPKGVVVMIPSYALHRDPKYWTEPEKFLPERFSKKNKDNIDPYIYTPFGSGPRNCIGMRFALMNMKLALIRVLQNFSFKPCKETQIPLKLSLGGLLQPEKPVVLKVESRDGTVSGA
Source text: as §1

The conditions of series [9]: 1 μM, 30 minutes, 37° C., NADPH.
The conditions of series [10]: 1 μM, 30 minutes, 37° C., NADPH. This is another data set of the same source.
The conditions of series [11]: 1 μM, 30 minutes, 37° C., NADPH. This is another data set of the same source.
The conditions of series [12]: 1 μM, 30 minutes, 37° C., NADPH. This is another data set of the same source.
Method: 2) Microsomal Stability Evaluation
Four liver microsomes (Human, Dog, Rat, Mouse 0.5 mg/ml) with a 0.1 M phosphate buffer solution (pH 7.4), and the arylethene derivative of the present invention were added to a concentration of 1 μM, culturing was performed at 37° C. for 5 minutes in advance, a NADPH regeneration system solution was added thereto, and culturing was performed at 37° C. for 30 minutes. Thereafter, in order to complete the reaction, an acetonitrile solution containing an internal standard material (chlorpropamide) was added thereto, centrifugation (14,000 rpm, 4° C.) was performed for 5 minutes, and a supernatant was injected into a LC-MS/MS system to analyze the substrate drug, thereby evaluating metabolism stability to the arylethene derivative of the present invention.
The target of series [13] is GST-bound ERR gamma ligand-binding domain (LBD) (Homo sapiens (Human), UniProt P62508). In words: ERRγ binding assay (inverse agonist assay), TR-FRET.
Chain of GST-bound ERR gamma ligand-binding domain (LBD) (P62508 233-457): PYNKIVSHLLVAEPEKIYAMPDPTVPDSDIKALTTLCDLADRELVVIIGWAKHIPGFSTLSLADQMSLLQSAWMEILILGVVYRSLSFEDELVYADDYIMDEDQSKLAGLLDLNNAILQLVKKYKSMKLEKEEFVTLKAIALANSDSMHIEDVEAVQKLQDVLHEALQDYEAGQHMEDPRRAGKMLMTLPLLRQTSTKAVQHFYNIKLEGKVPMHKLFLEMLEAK
Method: 1) ERRγ Binding Assay (Inverse Agonist Assay)
as §2
Series [14] in a line: in vitro. The series is classed as in vitro ADME. The arrangement: Papp at 5 h: dose or concentration left out as unconfirmed. The note with it: PBS pH 7.4, 25° C.; for Papp at 5 h: PAMPA, read-out: Permeability Pampa. (The PAMPA barrier holds no transporters, so it reflects passive diffusion.)
Series [15] can be described thus: in vivo. The series is classed as in vivo. The note with it: rat.
Method: An oral administration group fasts the day before.
Blood of each animal is collected at 0 hour.
Into a tail vein of an intravenous administration group (IV), a drug is injected at a dose of 1 mg/kg (syringe).
To an oral administration group (PO), a drug is orally administered at a dose of 10 mg/kg (oral zondec)
After administration, blood of the intravenous administration group was collected through a jugular vein 8 times at 0.08, 0.25, 0.5, 1, 2, 4, 6, and 8 hours. One collected blood amount is 400 to 500 ul.
After administration, blood of the oral administration group was collected through a jugular vein 6 times at 0.25, 0.5, 1, 4, 6 and 8 hours. One collected blood amount is 400 to 500 ul.
Supernatant plasma is collected by a centrifuge.
The supernatant plasma was injected into a LC-MS/MS system and the drug is analyzed.
The mark [16] stands for this setting: activity relative to reference compound GSK5182, 10 μM.
Where [17] appears, read: TR-FRET, PGC1a coactivator, read-out: Binding Assay, IC50 ERRγ.

We go through 7 compounds from patent US10934303B2, “Aryl ethene derivative and pharmaceutical composition containing same as active ingredient” (priority 2016, dated 2021).

Read-outs that look alike come from different tables or passages of the source.

Chain of GST-bound ERR alpha LBD (P11474 193-421): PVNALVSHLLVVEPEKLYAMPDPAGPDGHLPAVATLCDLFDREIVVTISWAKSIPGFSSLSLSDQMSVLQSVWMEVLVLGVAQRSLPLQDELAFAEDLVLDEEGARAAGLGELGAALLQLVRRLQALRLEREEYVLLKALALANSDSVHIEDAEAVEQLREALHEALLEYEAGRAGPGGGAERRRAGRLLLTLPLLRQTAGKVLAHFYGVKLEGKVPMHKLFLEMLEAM
Chain of GST-bound ER alpha ligand-binding domain (LBD) (P03372 whole entry, looked up, the tested form may be a part): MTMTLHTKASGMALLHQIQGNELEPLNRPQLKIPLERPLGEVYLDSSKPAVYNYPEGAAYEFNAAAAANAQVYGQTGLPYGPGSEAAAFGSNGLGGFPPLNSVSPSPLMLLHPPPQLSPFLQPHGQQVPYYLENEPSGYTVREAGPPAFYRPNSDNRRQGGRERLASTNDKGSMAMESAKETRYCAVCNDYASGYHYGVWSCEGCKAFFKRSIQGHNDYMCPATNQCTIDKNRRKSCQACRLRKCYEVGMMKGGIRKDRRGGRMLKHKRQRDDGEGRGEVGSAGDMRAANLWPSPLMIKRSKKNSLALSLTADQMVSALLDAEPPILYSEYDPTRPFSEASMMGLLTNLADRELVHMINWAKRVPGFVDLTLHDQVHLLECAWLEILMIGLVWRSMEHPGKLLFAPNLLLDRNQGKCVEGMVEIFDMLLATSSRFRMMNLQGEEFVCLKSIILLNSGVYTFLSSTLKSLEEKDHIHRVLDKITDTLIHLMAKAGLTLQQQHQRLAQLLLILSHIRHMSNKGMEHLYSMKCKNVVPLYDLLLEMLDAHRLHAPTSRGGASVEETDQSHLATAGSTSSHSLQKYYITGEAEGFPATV
Chain of CYP1A2 (P05177 whole entry): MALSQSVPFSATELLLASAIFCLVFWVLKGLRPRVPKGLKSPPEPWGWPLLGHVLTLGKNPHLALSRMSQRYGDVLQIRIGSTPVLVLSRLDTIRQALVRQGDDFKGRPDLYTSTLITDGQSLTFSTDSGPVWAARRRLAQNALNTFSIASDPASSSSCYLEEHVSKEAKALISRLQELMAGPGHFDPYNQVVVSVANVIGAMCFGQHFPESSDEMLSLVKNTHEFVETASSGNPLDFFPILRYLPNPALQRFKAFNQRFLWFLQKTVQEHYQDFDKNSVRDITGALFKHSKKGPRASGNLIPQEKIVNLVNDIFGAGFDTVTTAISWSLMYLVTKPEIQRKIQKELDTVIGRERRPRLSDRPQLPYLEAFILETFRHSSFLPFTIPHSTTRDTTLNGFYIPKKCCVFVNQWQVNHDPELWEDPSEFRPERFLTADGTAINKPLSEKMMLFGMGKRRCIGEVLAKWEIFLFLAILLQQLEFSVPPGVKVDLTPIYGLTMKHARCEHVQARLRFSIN
Chain of CYP2D6 (P10635 whole entry): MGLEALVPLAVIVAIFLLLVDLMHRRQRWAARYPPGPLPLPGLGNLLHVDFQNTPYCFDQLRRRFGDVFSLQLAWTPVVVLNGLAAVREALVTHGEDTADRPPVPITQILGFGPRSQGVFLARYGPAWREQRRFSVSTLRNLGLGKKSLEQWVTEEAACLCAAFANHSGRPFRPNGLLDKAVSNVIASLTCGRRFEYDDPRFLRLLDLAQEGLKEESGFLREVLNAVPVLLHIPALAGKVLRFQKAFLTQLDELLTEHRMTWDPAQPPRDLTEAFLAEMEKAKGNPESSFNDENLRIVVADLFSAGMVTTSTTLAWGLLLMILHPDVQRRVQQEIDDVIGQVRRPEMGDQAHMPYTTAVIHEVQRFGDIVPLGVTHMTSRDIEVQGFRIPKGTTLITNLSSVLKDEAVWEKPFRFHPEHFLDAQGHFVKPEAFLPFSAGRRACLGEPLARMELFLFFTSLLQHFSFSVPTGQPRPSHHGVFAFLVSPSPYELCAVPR

A word on the IC50: it is the concentration needed to halve the response being measured. As for `CC(C)N1CCC(c2ccc(/C(=C(/CCCO)c3ccccc3)c3ccc(O)cc3)cc2)CC1` [Compound 22k], the 50% inhibitory concentration (IC50) in series [1] is greater than 10000 nM; in [2], 1380 nM. Moreover, the “Functional Assay at 10 μM (% of control), Cpds” value in [3] (10 μM, 24 hours, AD293) was 0.77 % of control. Besides, in series [3] (setting [16]), the “Functional Assay, Cpds/Ref 5182” value was found to be 0.83. Besides, the “CYP inhibition (% of control) 1A2” value in series [4] was >100 % of control. For the same compound, the “CYP inhibition (% of control) 2C9” value in [5] is 97 % of control. Also, the “CYP inhibition (% of control) 2C19” value in series [6] is listed as >100 % of control. For the same compound, the “CYP inhibition (% of control) 2D6” value in series [7] was 73.7 % of control. Also, the “CYP inhibition (% of control) 3A4” value in [8] is 74.7 % of control. Moreover, the “MS(Microsomal Stability) (%) human” value in [9] is on record as 59.7%. In series [10], the “MS(Microsomal Stability) (%) dog” value is on record as 59.6%. Moreover, the “MS(Microsomal Stability) (%) rat” value in [11] is 69.0%. Further, in series [12], the “MS(Microsomal Stability) (%) mouse” value was 23.4%.
Consider `OCCC/C(=C(\c1ccc(O)cc1)c1ccc(OCCN2CCCC2)cc1)c1ccccc1` [Compound 6e], for which the IC50 was 67 nM in series [13] (setting [17]), greater than 10000 nM in series [1] and 408 nM in series [2]. Also, the “Functional Assay, Cpds/Ref 5182” value in series [3] turned out to be 1.82. In addition, the “Functional Assay at 10 μM (% of control), Cpds” value in series [3] (10 μM, 24 hours, AD293) was 5.61 % of control.
With `CC(C)N1CCN(c2ccc(/C(=C(/CCCO)c3ccccc3)c3ccc(NS(C)(=O)=O)cc3)cc2)CC1` [Compound 27a, (E)-N-(4-(5-hydroxy-1-(4-(4-isopropylpiperazin-1-yl)phenyl)-2-phenylpent-1-en-1-yl)phenyl)methanesulfonamide], the IC50 in series [13] turned out to be 26 nM. Besides, in [3], the “Functional Assay at 10 μM (% of control), Cpds” value is reported as 2.1 % of control and the “Functional Assay, Cpds/Ref 5182” value is recorded as 0.77. Moreover, the Papp at 5 h in [14] stood at 2.22 ×10⁻⁶ cm/s. Besides, in [9], the “MS(Microsomal Stability) (%) human” value is reported as 66.2%. The “MS(Microsomal Stability) (%) dog” value in series [10] turned out to be 50.3%. Further, the “MS(Microsomal Stability) (%) rat” value in series [11] is reported as 65.0%. The “MS(Microsomal Stability) (%) mouse” value in [12] is on record as 32.7%.
For `CN1CCC[C@H]1CCOc1ccc(/C(=C(/CCCO)c2ccccc2)c2ccc(O)cc2)cc1` [Compound 6j], the IC50 in series [13] (setting [17]) came out at 34 nM. In addition, the “Functional Assay at 10 μM (% of control), Cpds” value in series [3] (10 μM, 24 hours, AD293) is reported as 2.44 % of control. Further, in series [3] (setting [16]), the “Functional Assay, Cpds/Ref 5182” value is 0.77.
With `CN1CCC[C@@H]1CCOc1ccc(/C(=C(/CCCO)c2ccccc2)c2ccc(O)cc2)cc1` [Compound 6k], in [13] (setting [17]), the IC50 stood at 26 nM. Besides, the “Functional Assay at 10 μM (% of control), Cpds” value in series [3] (10 μM, 24 hours, AD293) is 2.5 % of control. Besides, the “Functional Assay, Cpds/Ref 5182” value in [3] (setting [16]) is 0.79. Also, the Papp at 5 h in series [14] is 0.12 ×10⁻⁶ cm/s.
In the case of `CN1CCC[C@H]1COc1ccc(/C(=C(/CCCO)c2ccccc2)c2ccc(Br)cc2)cc1` [Compound 13b], the IC50 in series [13] (setting [17]) worked out at 64 nM. In addition, in series [3], the “Functional Assay at 10 μM (% of control), Cpds” value is 1.5 % of control and the “Functional Assay, Cpds/Ref 5182” value worked out at 0.48. Moreover, the Papp at 5 h in series [14] is 0.93 ×10⁻⁶ cm/s. Further, the “MS(Microsomal Stability) (%) human” value in series [9] came to 61.2%. The “MS(Microsomal Stability) (%) rat” value in series [11] amounted to 66.2%.
The Vss is the apparent volume that relates the amount in the body to the concentration in plasma or blood. Usually Tmax stands for the time at which the peak concentration occurs. What is called Cmax is the maximum level reached in the sampled fluid or tissue. With `CC(C)N1CCN(c2ccc(/C(=C(/CCCO)c3ccccc3)c3ccc(Br)cc3)cc2)CC1` [Compound 18e], in series [1], the 50% inhibitory concentration (IC50) is greater than 10000 nM. Also, in series [2], the IC50 was greater than 10000 nM. Moreover, the “Functional Assay at 10 μM (% of control), Cpds” value in [3] (10 μM, 24 hours, AD293) is 2.6 % of control. Besides, in [3] (setting [16]), the “Functional Assay, Cpds/Ref 5182” value was 0.89. For the same compound, the “CYP inhibition (% of control) 1A2” value in [4] is >100 % of control. The “CYP inhibition (% of control) 2C9” value in series [5] is 91.3 % of control. For the same compound, the “CYP inhibition (% of control) 2C19” value in series [6] is on record as 84.6 % of control. In series [7], the “CYP inhibition (% of control) 2D6” value was >100 % of control. For the same compound, the “CYP inhibition (% of control) 3A4” value in series [8] is reported as 84 % of control. Moreover, in series [14] (5 hours), the “Permeability Pampa” value is on record as 1.11 10^−6 cm/s. In series [15] (IV, 1 mg/kg), this compound registered an AUCINF of 0.06 μMh, an AUCall of 0.06 μMh, a Vss of 39.1 L/kg and a t1/2 of 0.8 h. In [15] (PO, 10 mg/kg), the AUCINF came out at 0.09 μMh, the AUCall amounted to 0.07 μMh, the BA is given as 11.5% and the Tmax is given as 2.8 h. Also, the peak concentration (Cmax) in [15] (PO, 10 mg/kg, read-out: Cmax) stood at 10 nM.
